{
  "source": "patent US20240158446A1",
  "about": "“CYCLIC COMPOUND HAVING SELECTIVE INHIBITORY ACTION ON KRAS OVER HRAS AND NRAS” (CHUGAI SEIYAKU KABUSHIKI KAISHA, priority 2021, published 2024)",
  "key": {"[1]": {"target": "GDP-bound HRAS wild-type protein (Homo sapiens, UniProt P01112)", "sequence (P01112 whole entry)": "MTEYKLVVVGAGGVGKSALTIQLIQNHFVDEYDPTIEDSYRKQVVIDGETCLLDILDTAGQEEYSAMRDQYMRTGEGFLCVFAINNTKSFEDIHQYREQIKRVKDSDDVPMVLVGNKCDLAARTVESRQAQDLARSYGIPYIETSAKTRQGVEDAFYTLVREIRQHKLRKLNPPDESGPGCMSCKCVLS", "experiment": "Binding to HRAS by surface plasmon resonance (SPR), Single Cycle Kinetics", "conditions": "SPR, GDP-bound HRAS wild-type protein vs GDP-bound KRAS wild-type protein"}, "[2]": {"target": "GDP-bound NRAS wild-type protein (Homo sapiens, UniProt P01111)", "sequence (P01111 whole entry)": "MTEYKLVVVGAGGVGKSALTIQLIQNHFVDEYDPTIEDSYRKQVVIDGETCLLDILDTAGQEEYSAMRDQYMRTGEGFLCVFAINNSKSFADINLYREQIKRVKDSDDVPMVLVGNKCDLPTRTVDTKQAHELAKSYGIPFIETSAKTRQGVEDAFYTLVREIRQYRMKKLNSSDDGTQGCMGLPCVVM", "experiment": "Binding to NRAS by surface plasmon resonance (SPR), Single Cycle Kinetics", "conditions": "SPR, GDP-bound NRAS wild-type protein vs GDP-bound KRAS wild-type protein"}, "[3]": {"target": "GDP-bound KRAS wild-type protein (Homo sapiens, UniProt P01116)", "sequence (P01116 whole entry)": "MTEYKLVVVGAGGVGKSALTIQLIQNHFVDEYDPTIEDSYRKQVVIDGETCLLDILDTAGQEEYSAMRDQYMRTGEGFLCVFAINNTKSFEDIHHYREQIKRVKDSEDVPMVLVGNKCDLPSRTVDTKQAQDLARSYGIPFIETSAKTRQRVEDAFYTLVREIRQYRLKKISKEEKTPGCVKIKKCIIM", "experiment": "Binding to KRAS by surface plasmon resonance (SPR), Single Cycle Kinetics", "conditions": "GDP-bound KRAS wild-type protein, read-out: KRAS KD"}, "[4]": {"conditions": "SPR Single Cycle Kinetics, 1:1 binding model"}},
  "note": "Read-outs that look alike come from different tables or passages of the source. *1 amine or outer side, *2 acyl side, *3 side chain or, on linkers, in order; H or OH if unused. Where a SMILES comes first, the peptide text is derived from it. Bridges are numbered along the chain shown (N, C = ends). [ ]: non-standard residue; d: D form. The star is where a group is joined. hPhe(3-Cl-4-CF3) = N[C@@H](CCc1ccc(C(F)(F)F)c(Cl)c1)C(=O)O; X32 = COCCN([C@@H](Cc1ccc(C(F)(F)F)cc1)C(=O)[*:2])[*:1]; NPrPhe(4-CF3) = CCCN[C@@H](Cc1ccc(C(F)(F)F)cc1)C(=O)O; NMeGly(cPent) = CN[C@H](C(=O)O)C1CCCC1; Pro(4,4-F2) = O=C(O)[C@@H]1CC(F)(F)CN1; Hyp = O=C(O)[C@@H]1C[C@@H](O)CN1; NMeD = CN[C@@H](CC(=O)O)C(=O)O; NMeL = CN[C@@H](CC(C)C)C(=O)O; Morpholide = C1CN(*)CCO1; NMeA = CN[C@@H](C)C(=O)O; Ac5c = NC1(C(=O)O)CCCC1; Aze = O=C(O)[C@@H]1CCN1; Sar = CNCC(=O)O",
  "data": [
    {"smiles": "CCCN1C(=O)[C@@H]2CCN2C(=O)[C@H](C)N(C)C(=O)[C@H]([C@@H](C)CC)NC(=O)[C@H](CC(C)C)N(C)C(=O)C[C@@H](C(=O)N(C)C)N(C)C(=O)[C@H](C2CCCC2)N(C)C(=O)C2(CCCC2)NC(=O)[C@@H]2C[C@@H](OCC)CN2C(=O)[C@H](CCc2ccc(C(F)(F)F)c(Cl)c2)NC(=O)CN(C)C(=O)[C@@H]1Cc1ccc(C(F)(F)F)cc1", "note": "[PP0438] ([NMeL]I[NMeA][Aze][NPrPhe(4-CF3)][Sar][hPhe(3-Cl-4-CF3)][Hyp](Et)[Ac5c][NMeGly(cPent)][NMeD]-NMe2; lactam N-11)", "values": [
      {"measurement": "HRAS/KRAS (ratio of KD value with respect to HRAS to KD value with respect to KRAS)", "setting": "[1]", "result": "C (A compound having a KD ratio of 0.1 or more and less than 3 is denoted as C)"},
      {"measurement": "NRAS/KRAS (ratio of KD value with respect to NRAS to KD value with respect to KRAS)", "setting": "[2]", "result": "C (A compound having a KD ratio of 0.1 or more and less than 3 is denoted as C)"},
      {"measurement": "Kd", "setting": "[3]; [4]", "result": 0.03, "unit": "nM"}
    ]},
    {"smiles": "CCCN1C(=O)[C@@H]2CCN2C(=O)CN(C)C(=O)[C@H]([C@@H](C)CC)NC(=O)[C@H](CC(C)C)N(C)C(=O)C[C@@H](C(=O)N2CCOCC2)NC(=O)[C@H](C2CCCC2)N(C)C(=O)C2(CCCC2)NC(=O)[C@@H]2CC(F)(F)CN2C(=O)[C@H](CCc2ccc(C(F)(F)F)c(Cl)c2)NC(=O)CN(C)C(=O)[C@@H]1Cc1ccc(C(F)(F)F)cc1", "note": "[PP0351] ([NMeL]I[Sar][Aze][NPrPhe(4-CF3)][Sar][hPhe(3-Cl-4-CF3)][Pro(4,4-F2)][Ac5c][NMeGly(cPent)]D-Morpholide; lactam N-11)", "values": [
      {"measurement": "HRAS/KRAS (ratio of KD value for HRAS to KD value for KRAS)", "setting": "[1]", "result": "B (a compound having 3 or more and less than 10 is denoted as B)"},
      {"measurement": "NRAS/KRAS (ratio of KD value for NRAS to KD value for KRAS)", "setting": "[2]", "result": "C (A compound having a KD ratio of 0.1 or more and less than 3 is denoted as C)"},
      {"measurement": "Kd", "setting": "[3]; [4]", "result": 1.1, "unit": "nM"}
    ]},
    {"smiles": "CC[C@H](C)[C@@H]1NC(=O)[C@H](CC(C)C)N(C)C(=O)C[C@@H](C(=O)N2CCOCC2)N(C)C(=O)[C@H](C2CCCC2)N(C)C(=O)C2(CCCC2)NC(=O)[C@@H]2CCCN2C(=O)[C@H](CCc2ccc(C(F)(F)F)c(Cl)c2)NC(=O)CN(C)C(=O)[C@H](Cc2ccc(C(F)(F)F)cc2)N(CCOC)C(=O)[C@@H]2CCN2C(=O)[C@H](C)N(C)C1=O", "note": "[PP0118] ([NMeL]I[NMeA][Aze][X32][Sar][hPhe(3-Cl-4-CF3)]P[Ac5c][NMeGly(cPent)][NMeD]-Morpholide; lactam N-11)", "values": [
      {"measurement": "HRAS/KRAS (ratio of KD value for HRAS to KD value for KRAS)", "setting": "[1]", "result": "C (A compound having a KD ratio of 0.1 or more and less than 3 is denoted as C)"},
      {"measurement": "NRAS/KRAS (ratio of KD value for NRAS to KD value for KRAS)", "setting": "[2]", "result": "C (A compound having a KD ratio of 0.1 or more and less than 3 is denoted as C)"},
      {"measurement": "Kd", "setting": "[3]; [4]", "result": 0.21, "unit": "nM"}
    ]},
    {"smiles": "CCO[C@@H]1C[C@H]2C(=O)NC3(CCCC3)C(=O)N(C)[C@@H](C3CCCC3)C(=O)N(C)[C@H](C(=O)N(C)C)CC(=O)N(C)[C@@H](CC)C(=O)N[C@@H]([C@@H](C)CC)C(=O)N(C)CC(=O)N(C)[C@H]3CC(C)=CCN(C3=O)[C@@H](Cc3ccc(C(F)(F)F)cc3)C(=O)N(C)CC(=O)N[C@@H](CCc3cc(F)c(C(F)(F)F)c(F)c3)C(=O)N2C1", "note": "[PP1036]", "values": [
      {"measurement": "HRAS/KRAS (ratio of KD value for HRAS to KD value for KRAS)", "setting": "[1]", "result": "C (A compound having a KD ratio of 0.1 or more and less than 3 is denoted as C)"},
      {"measurement": "NRAS/KRAS (ratio of KD value for NRAS to KD value for KRAS)", "setting": "[2]", "result": "C (A compound having a KD ratio of 0.1 or more and less than 3 is denoted as C)"},
      {"measurement": "Kd", "setting": "[3]; SPR, Single Cycle Kinetics", "result": 0.75, "unit": "nM"}
    ]},
    {"smiles": "CCO[C@@H]1C[C@H]2C(=O)N(C)C3(CCC3)C(=O)N(C)[C@@H](C(CC)CC)C(=O)N(C)[C@H](C(=O)N(C)C)CC(=O)N(C)[C@@H](COC)C(=O)N[C@@H]([C@@H](C)CC)C(=O)N(C)CC(=O)N(C)[C@H]3C/C=C\\CCN(C3=O)[C@@H](CC3CCCCC3)C(=O)N(C)CC(=O)N[C@@H](CCc3ccc(C(F)(F)F)c(OC)c3)C(=O)N2C1", "note": "[PP2335]", "values": [
      {"measurement": "HRAS/KRAS (ratio of KD value for HRAS to KD value for KRAS)", "setting": "[1]", "result": "A (a compound having 10 or more and less than 20 is denoted as A)"},
      {"measurement": "NRAS/KRAS (ratio of KD value for NRAS to KD value for KRAS)", "setting": "[2]", "result": "A (a compound having 10 or more and less than 20 is denoted as A)"},
      {"measurement": "Kd", "setting": "[3]; SPR, Single Cycle Kinetics", "result": 1.4, "unit": "nM"}
    ]}
  ]
}
